Measured values from US20240336574A1 (LATIGO BIOTHERAPEUTICS, INC., priority 2021, published 2024).
pIC50: −log10 of the molar value. Read-outs that look alike come from different tables or passages of the source.

Biological target: T1, recombinant human NaV1.8 stably transfected HEK cells (Homo sapiens, UniProt Q9Y5Y9)
T1 construct: expressed in transfected cells; host or cells: HEK cells, stably transfected
Assay: Compound profiling on NaV1.8, human NaV1.8 cell line, SyncroPatch384PE automated patch clamp assay (Example 102, first set of compounds, Table 16)
Type: cell-based
Conditions: human NaV1.8 HEK cells, Table 16 (first set of compounds)
Summary of the method: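 IC50s come from two read-outs: resting-state block (P1, 10 mV step from −120 mV) and inactivated-state block (P2, after 10 s at −40 mV), scaled between DMSO and 250 μM tetracaine. Compounds (20–0.001 μM final, 1:3 steps) were applied for 5 min, 15 s sweeps. Cells kept at 30 °C the day before.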

[1] = inactivated state block (P2 measurement), read-out: P2IC50
[2] = resting state block (P1 measurement), read-out: P1IC50

T1 sequence (Q9Y5Y9 whole entry): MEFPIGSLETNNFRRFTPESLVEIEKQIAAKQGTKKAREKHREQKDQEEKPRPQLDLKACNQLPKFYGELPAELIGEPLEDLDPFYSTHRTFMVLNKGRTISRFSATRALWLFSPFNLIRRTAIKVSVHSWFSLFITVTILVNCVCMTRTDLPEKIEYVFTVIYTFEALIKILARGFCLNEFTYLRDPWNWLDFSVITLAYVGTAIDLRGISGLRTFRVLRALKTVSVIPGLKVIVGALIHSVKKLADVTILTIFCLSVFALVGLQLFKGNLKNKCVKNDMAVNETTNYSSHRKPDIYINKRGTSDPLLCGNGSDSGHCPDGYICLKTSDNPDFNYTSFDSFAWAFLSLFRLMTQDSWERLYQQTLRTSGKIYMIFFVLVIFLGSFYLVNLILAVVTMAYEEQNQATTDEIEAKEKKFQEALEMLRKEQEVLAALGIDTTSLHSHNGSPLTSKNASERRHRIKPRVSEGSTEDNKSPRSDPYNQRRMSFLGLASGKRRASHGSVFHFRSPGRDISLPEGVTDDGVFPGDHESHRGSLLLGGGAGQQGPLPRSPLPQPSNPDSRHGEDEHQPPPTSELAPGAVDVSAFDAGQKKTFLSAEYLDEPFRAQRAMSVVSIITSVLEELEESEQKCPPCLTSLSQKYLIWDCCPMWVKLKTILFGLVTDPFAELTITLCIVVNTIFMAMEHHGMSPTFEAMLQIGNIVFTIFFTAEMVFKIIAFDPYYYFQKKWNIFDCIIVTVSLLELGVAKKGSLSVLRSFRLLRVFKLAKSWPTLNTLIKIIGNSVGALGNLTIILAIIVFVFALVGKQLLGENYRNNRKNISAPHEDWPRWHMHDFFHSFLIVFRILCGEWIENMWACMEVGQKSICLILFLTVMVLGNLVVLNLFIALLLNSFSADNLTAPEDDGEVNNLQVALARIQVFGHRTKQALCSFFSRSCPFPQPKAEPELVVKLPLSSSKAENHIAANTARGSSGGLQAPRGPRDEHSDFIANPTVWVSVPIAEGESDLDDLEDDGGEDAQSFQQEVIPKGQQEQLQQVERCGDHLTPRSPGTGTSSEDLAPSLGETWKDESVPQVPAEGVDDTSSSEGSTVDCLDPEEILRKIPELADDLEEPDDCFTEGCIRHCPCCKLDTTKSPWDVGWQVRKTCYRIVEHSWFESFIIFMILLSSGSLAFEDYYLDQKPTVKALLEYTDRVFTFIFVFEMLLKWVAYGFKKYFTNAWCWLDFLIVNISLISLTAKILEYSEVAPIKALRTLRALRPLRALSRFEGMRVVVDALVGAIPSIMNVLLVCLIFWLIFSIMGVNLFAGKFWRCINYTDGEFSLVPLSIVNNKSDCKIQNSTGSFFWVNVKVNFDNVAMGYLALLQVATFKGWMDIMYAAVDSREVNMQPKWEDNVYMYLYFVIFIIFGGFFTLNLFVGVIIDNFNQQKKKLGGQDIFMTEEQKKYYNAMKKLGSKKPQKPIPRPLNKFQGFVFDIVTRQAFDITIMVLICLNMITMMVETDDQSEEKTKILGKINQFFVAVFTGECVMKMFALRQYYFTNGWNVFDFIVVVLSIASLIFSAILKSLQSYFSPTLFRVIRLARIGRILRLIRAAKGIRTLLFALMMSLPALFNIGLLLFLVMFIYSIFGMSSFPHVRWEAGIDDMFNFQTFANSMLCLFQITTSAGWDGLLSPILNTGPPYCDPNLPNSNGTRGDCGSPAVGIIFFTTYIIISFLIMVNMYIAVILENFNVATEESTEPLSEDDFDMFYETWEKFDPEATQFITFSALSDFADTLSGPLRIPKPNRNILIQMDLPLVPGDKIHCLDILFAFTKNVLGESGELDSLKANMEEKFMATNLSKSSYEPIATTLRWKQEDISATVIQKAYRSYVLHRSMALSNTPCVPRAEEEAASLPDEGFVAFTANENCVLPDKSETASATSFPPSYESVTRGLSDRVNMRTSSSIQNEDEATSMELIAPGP

pIC50 [1] | pIC50 [2] | Compound
6.30 to 6.70 | 6.30 to 6.70 | Cc1cc(F)ccc1COc1ncc(C(F)(F)F)cc1C(=O)Nc1cccc(S(C)(=O)=O)c1 [Compound 1596]
≥ 7.70 | ≥ 7.70 | COc1nc(Br)ccc1Oc1ncc(C(F)(F)F)cc1C(=O)Nc1cccc(S(C)(=O)=O)c1 [Compound 1603]
≥ 7.70 | ≥ 7.70 | COc1nc(C)ccc1Oc1ncc(C(F)(F)F)cc1C(=O)Nc1cccc(S(C)(=O)=O)c1 [Compound 1608]
≥ 7.70 | ≥ 7.70 | COc1cc(F)c(F)cc1Oc1ncc(C(F)(F)F)cc1C(=O)Nc1cccc(S(C)(=O)=O)c1 [Compound 1615]
6.30 to 6.70 | 6.30 to 6.70 | Cc1cc(C(F)(F)F)c(C)cc1Oc1ncc(C(F)(F)F)cc1C(=O)Nc1cccc(S(C)(=O)=O)c1 [Compound 1616]
7.40 to 7.70 | 7.40 to 7.70 | COc1cc(F)c(F)cc1Oc1ncc(C(F)(F)F)cc1C(=O)Nc1cccc(S(C)(=N)=O)c1 (stereo not drawn) [Compound 1617]
≥ 7.70 | ≥ 7.70 | COc1c(Oc2ncc(C(F)(F)F)cc2C(=O)Nc2cccc(S(C)(=N)=O)c2)ccc(F)c1Cl (stereo not drawn) [Compound 1618]
≥ 7.70 | ≥ 7.70 | COc1c(Oc2ncc(C(F)(F)F)cc2C(=O)Nc2cccc(C(N)=O)c2)ccc(F)c1F [Compound 1619]
6.30 to 6.70 | 6.30 to 6.70 | COc1ccc(C#N)cc1Oc1ncc(C(F)(F)F)cc1C(=O)Nc1cccc(S(C)(=N)=O)c1 (stereo not drawn) [Compound 1620]
6.30 to 6.70 | 6.30 to 6.70 | COc1cc(C)c(Oc2ncc(C(F)(F)F)cc2C(=O)Nc2cccc(S(C)(=N)=O)c2)cc1C#N (stereo not drawn) [Compound 1621]
6.30 to 6.70 | 6.30 to 6.70 | COc1ncc(C(N)=O)cc1Oc1ncc(C(F)(F)F)cc1C(=O)Nc1cccc(S(C)(=N)=O)c1 (stereo not drawn) [Compound 1622]
6.30 to 6.70 | 6.30 to 6.70 | COc1ncc(C#N)cc1Oc1ncc(C(F)(F)F)cc1C(=O)Nc1cccc(S(C)(=N)=O)c1 (stereo not drawn) [Compound 1623]
6.30 to 6.70 | 6.30 to 6.70 | Cn1ccc2c(Oc3ncc(C(F)(F)F)cc3C(=O)Nc3cccc(S(C)(=O)=O)c3)cccc21 [Compound 1624]
≥ 7.70 | ≥ 7.70 | COc1c(Oc2ncc(C(F)(F)F)cc2C(=O)Nc2cccc(S(C)(=N)=O)c2)ccc(F)c1F (stereo not drawn) [Compound 1630]
6.30 to 6.70 | 6.30 to 6.70 | NC(=O)c1cccc(NC(=O)c2cc(C(F)(F)F)cnc2OC23CC(C(F)(F)F)(C2)C3)c1 [Compound 1634]
6.70 to 7.40 | 6.70 to 7.40 | NC(=O)c1cccc(NC(=O)c2cc(C(F)(F)F)cnc2Oc2ccc(OC(F)F)cc2)c1 [Compound 1635]

pIC50 [1] | pIC50 [2] | Compound
≥ 7.70 | ≥ 7.70 | CS(=N)(=O)c1cccc(NC(=O)c2cc(C(F)(F)F)cnc2Oc2cccnc2OC(F)(F)F)c1 (stereo not drawn) [Compound 1636]
6.30 to 6.70 | 6.30 to 6.70 | COc1cc(F)c(Oc2ncc(C(F)(F)F)cc2C(=O)Nc2cccc(S(C)(=N)=O)c2)cc1F (stereo not drawn) [Compound 1637]
6.30 to 6.70 | 6.30 to 6.70 | COc1cc(F)c(Oc2ncc(C(F)(F)F)cc2C(=O)Nc2cccc(C(N)=O)c2)cc1F [Compound 1638]
6.30 to 6.70 | 6.30 to 6.70 | COc1nc(C)c(Oc2ncc(C(F)(F)F)cc2C(=O)Nc2cccc(S(C)(=N)=O)c2)cc1F (stereo not drawn) [Compound 1639]
6.30 to 6.70 | 6.30 to 6.70 | COc1ccc(Oc2ncc(C(F)(F)F)cc2C(=O)Nc2cccc(S(C)(=N)=O)c2)cc1F (stereo not drawn) [Compound 1640]
≥ 7.70 | ≥ 7.70 | CS(=N)(=O)c1cccc(NC(=O)c2cc(C(F)(F)F)cnc2Oc2ccc(OC(F)F)c(F)c2)c1 (stereo not drawn) [Compound 1644]
6.30 to 6.70 | 6.30 to 6.70 | COc1cc(Oc2ncc(C(F)(F)F)cc2C(=O)Nc2cccc(S(C)(=N)=O)c2)ccc1C#N (stereo not drawn) [Compound 1645]
≥ 7.70 | ≥ 7.70 | CC(C)Oc1ccc(Oc2ncc(C(F)(F)F)cc2C(=O)Nc2cccc(S(C)(=N)=O)c2)cc1F (stereo not drawn) [Compound 1647]
≥ 7.70 | ≥ 7.70 | CS(=N)(=O)c1cccc(NC(=O)c2cc(C(F)(F)F)cnc2Oc2ccc(Br)cc2C2CC2)c1 (stereo not drawn) [Compound 1648]
7.40 to 7.70 | 7.40 to 7.70 | COc1c(Oc2nccc(C(F)(F)F)c2C(=O)Nc2cccc(C(N)=O)c2)ccc(F)c1F [Compound 1652]
≥ 7.70 | ≥ 7.70 | COc1nc(C#N)ccc1Oc1ncc(C(F)(F)F)cc1C(=O)Nc1cccc([S@](C)(=N)=O)c1 [Compound 1655]
6.70 to 7.40 | 6.70 to 7.40 | CSc1cccc(Oc2ncc(C(F)(F)F)cc2C(=O)Nc2cccc(S(C)(=O)=O)c2)c1 [Compound 1656]
6.70 to 7.40 | 6.30 to 6.70 | CS(=O)(=O)c1cccc(NC(=O)c2cc(C(F)(F)F)cnc2Oc2cc(OC(F)(F)F)ccc2F)c1 [Compound 1658]
≥ 7.70 | ≥ 7.70 | CS(=O)(=O)c1cccc(NC(=O)c2cc(C(F)(F)F)cnc2Oc2ccc(OC(F)(F)F)cc2F)c1 [Compound 1661]
6.30 to 6.70 | 6.30 to 6.70 | CC(C)(O)c1ccc(Oc2ncc(C(F)(F)F)cc2C(=O)Nc2cccc(S(C)(=O)=O)c2)c(F)c1 [Compound 1664]

More lines, now with the values behind:

Compound | pIC50 [1] | pIC50 [2]
CS(=O)(=O)c1cccc(NC(=O)c2cc(C(F)(F)F)cnc2Oc2ccn3ccnc3c2)c1 [Compound 1597] | 6.30 to 6.70 | 6.30 to 6.70
CS(=O)(=O)c1cccc(NC(=O)c2cc(C(F)(F)F)cnc2Oc2ccc3c(c2)CC(=O)N3)c1 [Compound 1598] | 6.30 to 6.70 | 6.30 to 6.70
CS(=O)(=O)c1cccc(NC(=O)c2cc(C(F)(F)F)cnc2Oc2cccn3ccnc23)c1 [Compound 1599] | 6.30 to 6.70 | 6.30 to 6.70
CCOc1ncc(C(F)(F)F)cc1C(=O)Nc1cccc(S(C)(=O)=O)c1 [Compound 1600] | 6.30 to 6.70 | 6.30 to 6.70
CS(=O)(=O)c1cccc(NC(=O)c2cc(C(F)(F)F)cnc2Oc2ccc3c(c2)NC(=O)C3)c1 [Compound 1601] | 6.30 to 6.70 | 6.30 to 6.70
CS(=O)(=O)c1cccc(NC(=O)c2cc(C(F)(F)F)cnc2OCC2CC2)c1 [Compound 1602] | 6.30 to 6.70 | 6.30 to 6.70
CS(=O)(=O)c1cccc(NC(=O)c2cc(C(F)(F)F)cnc2OCCC(F)(F)F)c1 [Compound 1604] | 6.30 to 6.70 | 6.70 to 7.40
CS(=O)(=O)c1cccc(NC(=O)c2cc(C(F)(F)F)cnc2OCC2CCC2(F)F)c1 (stereo not drawn) [Compound 1605] | 6.30 to 6.70 | 6.30 to 6.70
CS(=O)(=O)c1cccc(NC(=O)c2cc(C(F)(F)F)cnc2OC2CCC(=O)NC2)c1 (stereo not drawn) [Compound 1606] | 6.30 to 6.70 | 6.30 to 6.70
CCOc1ccc(Oc2ncc(C(F)(F)F)cc2C(=O)Nc2cccc(S(C)(=N)=O)c2)cc1 (stereo not drawn) [Compound 1609] | 6.70 to 7.40 | 6.70 to 7.40
Cn1cc(Oc2ncc(C(F)(F)F)cc2C(=O)Nc2cccc(S(C)(=O)=O)c2)cn1 [Compound 1610] | 6.30 to 6.70 | 6.30 to 6.70
Cc1nn(C)c(C)c1Oc1ncc(C(F)(F)F)cc1C(=O)Nc1cccc(S(C)(=O)=O)c1 [Compound 1611] | 6.30 to 6.70 | 6.30 to 6.70
Cc1ccc2c(Oc3ncc(C(F)(F)F)cc3C(=O)Nc3cccc(S(C)(=O)=O)c3)cccc2n1 [Compound 1625] | 6.30 to 6.70 | 6.30 to 6.70
CS(=O)(=O)c1cccc(NC(=O)c2cc(C(F)(F)F)cnc2Oc2cccc3c2OCCC3)c1 [Compound 1626] | 6.30 to 6.70 | 6.30 to 6.70
CS(=O)(=O)c1cccc(NC(=O)c2cc(C(F)(F)F)cnc2OCC23CC(F)(C2)C3)c1 [Compound 1629] | 6.70 to 7.40 | 6.70 to 7.40
CS(=N)(=O)c1cccc(NC(=O)c2cc(C(F)(F)F)cnc2OCC23CC(C#N)(C2)C3)c1 (stereo not drawn) [Compound 1631] | 6.30 to 6.70 | 6.30 to 6.70
CS(=N)(=O)c1cccc(NC(=O)c2cc(C(F)(F)F)cnc2OC2CC3(C2)CC(F)(F)C3)c1 (stereo not drawn) [Compound 1632] | 6.30 to 6.70 | 6.30 to 6.70
CS(=N)(=O)c1cccc(NC(=O)c2cc(C(F)(F)F)cnc2OC23CC(C(F)(F)F)(C2)C3)c1 (stereo not drawn) [Compound 1633] | 6.30 to 6.70 | 6.70 to 7.40
CS(=N)(=O)c1cccc(NC(=O)c2cc(C(F)(F)F)cnc2Oc2ccc(OC(F)F)nc2)c1 (stereo not drawn) [Compound 1646] | 6.70 to 7.40 | 6.70 to 7.40
CC(C)Oc1ccc(Oc2ncc(C(F)(F)F)cc2C(=O)Nc2ccc(-c3ncc[nH]3)cc2)c(F)c1F [Compound 1649] | 6.30 to 6.70 | 6.30 to 6.70
Cc1cc(F)ccc1Oc1nccc(C(F)(F)F)c1C(=O)Nc1cccc(S(C)(=N)=O)c1 (stereo not drawn) [Compound 1650] | 6.70 to 7.40 | 6.70 to 7.40
COc1c(Oc2nccc(C(F)(F)F)c2C(=O)Nc2cccc(S(C)(=N)=O)c2)ccc(F)c1F (stereo not drawn) [Compound 1651] | ≥ 7.70 | ≥ 7.70
COc1cc(C#N)ccc1Oc1nccc(C(F)(F)F)c1C(=O)Nc1cccc(S(C)(=N)=O)c1 (stereo not drawn) [Compound 1653] | 6.70 to 7.40 | 6.70 to 7.40
CS(=O)(=O)c1cccc(NC(=O)c2cc(C(F)(F)F)cnc2Oc2cccc(OC(F)(F)F)c2)c1 [Compound 1657] | 6.30 to 6.70 | 6.30 to 6.70
CS(=O)(=O)c1cccc(NC(=O)c2cc(C(F)(F)F)cnc2OCC2CC2(F)F)c1 (stereo not drawn) [Compound 1659] | 6.70 to 7.40 | 6.70 to 7.40
CS(=O)(=O)c1cccc(NC(=O)c2cc(C(F)(F)F)cnc2OC2CCC(F)(F)CC2)c1 [Compound 1660] | 6.70 to 7.40 | 6.70 to 7.40
CS(=O)(=O)c1cccc(NC(=O)c2cc(C(F)(F)F)cnc2OC2CCOC2)c1 (stereo not drawn) [Compound 1662] | 6.30 to 6.70 | 6.30 to 6.70
CS(=O)(=O)c1cccc(NC(=O)c2cc(C(F)(F)F)cnc2OCC(F)F)c1 [Compound 1663] | 6.30 to 6.70 | 6.30 to 6.70
CS(=N)(=O)c1cccc(NC(=O)c2cc(C(F)(F)F)cnc2OC2CC(C#N)C2)c1 (stereo not drawn) [Compound 1665] | 6.30 to 6.70 | 6.30 to 6.70
